Laboratory results as given in paper PMC3642319, “Biochemical and Immunological Characterization of Toxoplasma gondii Macrophage Migration Inhibitory Factor” (The Journal of Biological Chemistry, 2013).

What was measured:
HsMIF = biological target: T1, HsMIF (Homo sapiens, UniProt P14174); experiment: dopachrome tautomerase assay, absorbance at […] nm; format: biochemical
T1 construct: gene MIF; commercial recombinant human MIF (R&D Systems)
T1 sequence (P14174 2-115): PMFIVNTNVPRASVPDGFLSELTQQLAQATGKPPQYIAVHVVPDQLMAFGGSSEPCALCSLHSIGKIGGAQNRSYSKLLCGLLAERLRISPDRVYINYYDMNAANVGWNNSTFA

[1] = tested on: COC(=O)[C@@H]1CC2=CC(=O)C(=O)C=C2N1; experiment: purified protein; conditions: L-DOPA methyl ester (1-20 mM) oxidised in situ with sodium periodate, sodium phosphate pH 6.2, 1 mM EDTA, 37 °C, paper names the substrate L-DOPA methyl ester

Compound	inhibition at 10 µM (HsMIF) [%]	Km [1] [mM]
COC(=O)CC1CC(c2ccc(O)cc2)=NO1 (racemic) [ISO-1]	60	–
TgMIF (Toxoplasma gondii)	–	9.6
